Assay results published in patent US11918581B2, “Combination therapy comprising JAK pathway inhibitor and rock inhibitor” (Incyte Corporation, priority 2021, dated 2024).
pIC50: −log10 of the molar value.

Key:
[1] = molecular target: human JAK1 (a.a. 837-1142) (Homo sapiens, UniProt P23458); assay: In vitro JAK kinase assay (HTRF), JAK1; assay type: biochemical; conditions: 1 mM ATP
Protocol: (§1) The catalytic activity of JAK1, JAK2, or JAK3 was assayed by measuring the phosphorylation of a biotinylated peptide. The phosphorylated peptide was detected by homogenous time resolved fluorescence (HTRF). […] Reactions are carried out at room temperature for 1 hour and then stopped with 20 μL 45 mM EDTA, 300 nM SA-APC, 6 nM Eu-Py20 in assay buffer (Perkin Elmer, Boston, MA). Binding to the Europium labeled antibody takes place for 40 minutes and HTRF signal was measured on a Fusion plate reader (Perkin Elmer, Boston, MA).

[2] = molecular target: human JAK2 (a.a. 828-1132) (Homo sapiens (Human), UniProt O60674); assay: In vitro JAK kinase assay (HTRF), JAK2; assay type: biochemical; conditions: JAK2/JAK1 IC50 ratio, 1 mM ATP
Sequence of human JAK2 (a.a. 828-1132) (O60674 828-1132): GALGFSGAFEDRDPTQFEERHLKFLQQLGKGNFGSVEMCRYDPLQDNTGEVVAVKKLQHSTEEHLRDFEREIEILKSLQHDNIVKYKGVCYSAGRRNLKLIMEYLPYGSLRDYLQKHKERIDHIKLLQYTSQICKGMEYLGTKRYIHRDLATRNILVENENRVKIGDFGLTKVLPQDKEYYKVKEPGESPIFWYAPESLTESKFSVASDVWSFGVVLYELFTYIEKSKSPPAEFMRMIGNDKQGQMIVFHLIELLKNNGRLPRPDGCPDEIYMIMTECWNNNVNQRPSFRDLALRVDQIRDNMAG
Protocol: as §1

| Compound | pIC50 [1] | JAK2/JAK1 [2] |
| --- | --- | --- |
| N#CCC1(n2cc(-c3ncnc4[nH]ccc34)cn2)CN([C@H]2CC[C@@H](Oc3cc(CCO)nc(C(F)(F)F)n3)CC2)C1 [Compound 18, {1-(cis-4-{[6-(2-hydroxyethyl)-2-(trifluoromethyl)pyrimidin-4-yl]oxy}cyclohexyl)-3-[4-(7H-pyrrolo[2,3-d]pyrimidin-4-yl)-1H-pyrazol-1-yl]azetidin-3-yl}acetonitrile] | > 8.00 | >10 |
| C[C@@H](O)CNCc1cc(OC2CCN([C@H]3C[C@](CC#N)(n4cc(-c5ncnc6[nH]ccc56)cn4)C3)CC2)nc(C(F)(F)F)c1 [Compound 24, {trans-3-(4-{[4-({[(2R)-2-hydroxypropyl]amino}methyl)-6-(trifluoromethyl)pyridin-2-yl]oxy}piperidin-1-yl)-1-[4-(7H-pyrrolo[2,3-d]pyrimidin-4-yl)-1H-pyrazol-1-yl]cyclobutyl}acetonitrile] | > 8.00 | >10 |
| N#CC[C@]1(n2cc(-c3ncnc4[nH]ccc34)cn2)C[C@H](N2CCC(Oc3cc(CN4CCC[C@@H]4CO)cc(C(F)(F)F)n3)CC2)C1 [Compound 13, {trans-3-(4-{[4-{[(2R)-2-(hydroxymethyl)pyrroli-din-1-yl]methyl}-6-(trifluoromethyl)pyridin-2-yl]oxy}piperidin-1-yl)-1-[4-(7H-pyrrolo[2,3-d]pyrimidin-4-yl)-1H-pyrazol-1-yl]cyclobutyl}acetonitrile] | > 8.00 | >10 |
| N#CCC1(n2cc(-c3ncnc4[nH]ccc34)cn2)CN([C@H]2CC[C@@H](Oc3cc(CN4CC[C@H](O)C4)cc(C(F)(F)F)n3)CC2)C1 [Compound 22, {1-(cis-4-{[4-{[(3S)-3-hydroxypyrrolidin-1-yl]methyl}-6-(trifluoromethyl)pyridin-2-yl]oxy}cyclohexyl)-3-[4-(7H-pyrrolo[2,3-d]pyrimidin-4-yl)-1H-pyrazol-1-yl]azetidin-3-yl}acetonitrile] | > 8.00 | >10 |
| C[C@H](NC(=O)c1cc(F)c(N2CC(CC#N)(n3cc(-c4ncnc5[nH]ccc45)cn3)C2)cc1F)C(F)(F)F [Compound 16, 4-{3-(cyanomethyl)-3-[4-(7H-pyrrolo[2,3-d]pyrimidin-4-yl)-1H-pyrazol-1-yl]azetidin-1-yl}-2,5-difluoro-N-[(1S)-2,2,2-trifluoro-1-methylethyl]benzamide] | > 8.00 | >10 |
| N#CC[C@]1(n2cc(-c3ncnc4[nH]ccc34)cn2)C[C@H](N2CCC(Oc3cc(CN4CC(O)C4)cc(C(F)(F)F)n3)CC2)C1 [Compound 11, {trans-3-(4-{[4-[(3-hydroxyazetidin-1-yl)methyl]-6-(trifluoromethyl)pyridin-2-yl]oxy}piperidin-1-yl)-1-[4-(7H-pyrrolo[2,3-d]pyrimidin-4-yl)-1H-pyrazol-1-yl]cyclobutyl}acetonitrile] | > 8.00 | >10 |
| N#CCC(C1CCN(c2cccc(Cl)n2)C1)n1cc(-c2ncnc3[nH]ccc23)cn1 (single isomer, unassigned) [Compound 6, 3-[1-(6-chloropyridin-2-yl)pyrrolidin-3-yl]-3-[4-(7H-pyrrolo[2,3-d]pyrimidin-4-yl)-1H-pyrazol-1-yl]propanenitrile] | > 8.00 | >10 |
| N#CCC1(n2cc(-c3ncnc4[nH]ccc34)cn2)CN(C2CCN(C(=O)Nc3ccc(F)cc3C(F)(F)F)CC2)C1 [Compound 2, 4-{3-(Cyanomethyl)-3-[4-(7H-pyrrolo[2,3-d]pyrimidin-4-yl)-1H-pyrazol-1-yl]azetidin-1-yl}-N-[4-fluoro-2-(trifluoromethyl)phenyl] piperidine-1-carboxamide] | > 8.00 | >10 |
| N#CCC(C1CCN(c2nc3cccnc3o2)C1)n1cc(-c2ncnc3[nH]ccc23)cn1 (stereo not drawn) [Compound 7, 3-(1-[1,3]oxazolo[5,4-b]pyridin-2-ylpyrrolidin-3-yl)-3-[4-(7H-pyrrolo[2,3-d]pyrimidin-4-yl)-1H-pyrazol-1-yl]propanenitrile] | > 8.00 | >10 |
| CCNCc1cc(O[C@H]2CC[C@@H](N3CC(CC#N)(n4cc(-c5ncnc6[nH]ccc56)cn4)C3)CC2)nc(C(F)(F)F)c1 [Compound 19, {1-(cis-4-{[4-[(ethylamino)methyl]-6-(trifluoromethyl)pyridin-2-yl]oxy}cyclohexyl)-3-[4-(7H-pyrrolo[2,3-d]pyrimidin-4-yl)-1H-pyrazol-1-yl]azetidin-3-yl}acetonitrile] | > 8.00 | >10 |
| N#CCC1(n2cc(-c3ncnc4[nH]ccc34)cn2)CN([C@H]2CC[C@@H](Oc3cc(CN4CC[C@@H](O)C4)cc(C(F)(F)F)n3)CC2)C1 [Compound 21, {1-(cis-4-{[4-{[(3R)-3-hydroxypyrrolidin-1-yl]methyl}-6-(trifluoromethyl)pyridin-2-yl]oxy}cyclohexyl)-3-[4-(7H-pyrrolo[2,3-d]pyrimidin-4-yl)-1H-pyrazol-1-yl]azetidin-3-yl}acetonitrile] | > 8.00 | >10 |
| CC(C)(O)c1cc(O[C@H]2CC[C@@H](N3CC(CC#N)(n4cc(-c5ncnc6[nH]ccc56)cn4)C3)CC2)nc(C(F)(F)F)c1 [Compound 20, {1-(cis-4-{[4-(1-hydroxy-1-methylethyl)-6-(trifluoromethyl)pyridin-2-yl]oxy}cyclohexyl)-3-[4-(7H-pyrrolo[2,3-d]pyrimidin-4-yl)-1H-pyrazol-1-yl]azetidin-3-yl}acetonitrile] | > 8.00 | >10 |
| N#CC[C@]1(n2cc(-c3ncnc4[nH]ccc34)cn2)C[C@H](N2CCN(C(=O)c3ccnc(C(F)(F)F)n3)CC2)C1 [Compound 10, [trans-1-[4-(7H-pyrrolo[2,3-d]pyrimidin-4-yl)-1H-pyrazol-1-yl]-3-(4-{[2-(trifluoromethyl)pyrimidin-4-yl]carbonyl}piperazin-1-yl)cyclobutyl]acetonitrile] | > 8.00 | >10 |
| N#CCC(CN1CCN(C(=O)c2ccc(C#N)cc2F)CC1)n1ccc(-c2ncnc3[nH]ccc23)c1 (stereo not drawn) [Compound 9, 4-[(4-{3-cyano-2-[3-(7H-pyrrolo[2,3-d]pyrimidin-4-yl)-1H-pyrrol-1-yl]propyl}piperazin-1-yl)carbonyl]-3-fluorobenzonitrile] | > 8.00 | >10 |
| N#CC[C@]1(n2cc(-c3ncnc4[nH]ccc34)cn2)C[C@H](N2CCC(Oc3cc(CN4CCC[C@H]4CO)cc(C(F)(F)F)n3)CC2)C1 [Compound 12, {trans-3-(4-{[4-{[(2S)-2-(hydroxymethyl)pyrroli-din-1-yl]methyl}-6-(trifluoromethyl)pyridin-2-yl]oxy}piperidin-1-yl)-1-[4-(7H-pyrrolo[2,3-d]pyrimidin-4-yl)-1H-pyrazol-1-yl]cyclobutyl}acetonitrile] | > 8.00 | >10 |
| N#CCC1(n2cc(-c3ncnc4[nH]ccc34)cn2)CN(C2CCN(C(=O)c3ccnc(C(F)(F)F)n3)CC2)C1 [Compound 3, [3-[4-(7H-pyrrolo[2,3-d]pyrimidin-4-yl)-1H-pyrazol-1-yl]-1-(1-{[2-(trifluoromethyl)pyrimidin-4-yl]carbonyl}piperidin-4-yl)azetidin-3-yl]acetonitrile] | > 8.00 | >10 |
| N#CCC(CN1CCN(C(=O)c2ccc(C#N)cc2F)CC1)n1cc(-c2ncnc3[nH]ccc23)cn1 (stereo not drawn) [Compound 8, 4-[(4-{3-cyano-2-[4-(7H-pyrrolo[2,3-d]pyrimidin-4-yl)-1H-pyrazol-1-yl]propyl}piperazin-1-yl)carbonyl]-3-fluorobenzonitrile] | > 8.00 | >10 |
| C[C@@H](O)c1nc2cnc3ccsc3c2n1[C@H]1CC[C@H](CC#N)OC1 [Compound 5, ((2R,5S)-5-{2-[(1R)-1-hydroxyethyl]-1H-imidazo[4,5-d]thieno[3,2-b]pyridin-1-yl}tetrahydro-2H-pyran-2-yl)acetonitrile] | > 7.00 | >10 |
| C[C@H](O)CNCc1cc(OC2CCN([C@H]3C[C@](CC#N)(n4cc(-c5ncnc6[nH]ccc56)cn4)C3)CC2)nc(C(F)(F)F)c1 [Compound 25, {trans-3-(4-{[4-({[(2S)-2-hydroxypropyl]amino}methyl)-6-(trifluoromethyl)pyridin-2-yl]oxy}piperidin-1-yl)-1-[4-(7H-pyrrolo[2,3-d]pyrimidin-4-yl)-1H-pyrazol-1-yl]cyclobutyl}acetonitrile] | > 8.00 | >10 |
| C[C@@H](CO)NCc1cc(OC2CCN([C@H]3C[C@](CC#N)(n4cc(-c5ncnc6[nH]ccc56)cn4)C3)CC2)nc(C(F)(F)F)c1 [Compound 23, {trans-3-(4-{[4-({[(1S)-2-hydroxy-1-methylethyl]amino}methyl)-6-(trifluoromethyl)pyridin-2-yl]oxy}piperidin-1-yl)-1-[4-(7H-pyrrolo[2,3-d]pyrimidin-4-yl)-1H-pyrazol-1-yl]cyclobutyl}acetonitrile] | > 8.00 | >10 |
| N#CC[C@]1(n2cc(-c3ncnc4[nH]ccc34)cn2)C[C@H](N2CCC(Oc3cc(CCO)cc(C(F)(F)F)n3)CC2)C1 [Compound 26, {trans-3-(4-{[4-(2-hydroxyethyl)-6-(trifluoromethyl)pyridin-2-yl]oxy}piperidin-1-yl)-1-[4-(7H-pyrrolo[2,3-d]pyrimidin-4-yl)-1H-pyrazol-1-yl]cyclobutyl}acetonitrile] | > 8.00 | >10 |
